This assay concerns MCF7 cells. Description: Cell counts of MCF7 cells in culture with F, B or F+B (Example 1). It is filed as cell-based. The procedure:
Cells of line MCF7 are rapidly growing mammary adenocarcinoma cells. The doses tested in the study were 0.1.10^-3 and 0.5.10^-3 M. 1/100 dilutions were made in RPMT just before use and mixed to obtain a homogeneous emulsion at the moment of use. The mean number of cells inoculated was about 10^6 in each test. Test one: search for an effect on MCF7 cells at the dose of 0.5 mM. At the 11th transfer, the following were inoculated one bottle of MCF7 cells for growth, one bottle of MCF7 cells for the control, one bottle with the same number of calls +(F) at 0.5 mM, one bottle with the same number of cells +(F+B) at 0.5 mM, one bottle with the same number of cells +(B) at 0.5 mM. Bottles were placed in the incubator with caps unscrewed and the medium was changed every two days. On day 8, the cells were washed with 5 ml of PBS and freed from the substrate with PBS-EDTA, […] of RPMI+10% FCS and counted with a Malassez counting chamber. Test two: search of an effect on MCF7 cells at a dose of 0.1 mM. Same procedure as above is used but cells were used at the 12th transfer, using 0.1 mM doses of (F), (F+B) and (B).

Setting [1] is: test one, dose 0.5 mM, MCF7 cells counted on day 8, about 10^6 cells inoculated.

As for `CC(C)=CCC[C@](C)(O)[C@@H]1CC=C(C)CC1` [B, α-bisabolol], the “appearance of the culture bottle (adhering / floating dead cells)” value reads like this: (test one, 0.5 mM, MCF7) “few adhering cells and a large numbers of floating (dead) cells”; (test two, 0.1 mM, MCF7) “adhering homogeneous layer of cells with several dead cells”. The cell counts under setting [1] is recorded as 250 · 10^3 and the cell counts (test two (test at 0.1 mM), line printed as B at 0.5 mM) was 8930 · 10^3. In addition, the “alteration of cell adherence in culture” value (test run at 0.1 mM, MCF7) is reported as “slight”.
`CC(C)=CCCC(C)=CCCC(C)=CCO` [F, Farnesol]: the “appearance of the culture bottle (adhering / floating dead cells)” value was “few adhering cells and a large number of floating (dead) cells” (test one, 0.5 mM, MCF7); “few adhering cells and a large numbers of floating (dead) cells” (test two, 0.1 mM, MCF7). Further, the cell counts is 370 · 10^3 under setting [1] and 385 · 10^3 (test two, dose 0.1 mM, MCF7 cells counted on day 8, about 10^6 cells inoculated).

For the origin of these results see patent publication US20040072915A1, “Novel medicines based on sesquiterpene mixtures” (priority 2000, published 2004).
